# Test results as given in patent US20210315839A1, “USE OF SPERMIDINE FOR THE ENHANCEMENT OF MITOCHONDRIAL RESPIRATION” (TLL THE LONGEVITY LABS GMBH, priority 2016, published 2021).
# System: mitochondrial Complex I
# Experiment: High resolution respirometry of cardiac mitochondria isolated from spermidine supplemented aged mice (Complex I activity)
# Assay type: in vivo, C57BL/6 mice
# Details: for activity of mitochondrial Complex I (respiratory competence of cardiac mitochondria through respiratory chain complex I, OXPHOS stage): isolated cardiac mitochondria of 24 month old mice after 6 months of spermidine supplementation (24M+S) vs aged control (24M), complex I supplying substrates, 37° C., N-5/5
# Protocol: Mitochondria isolated from cardyomyocytes of spermidine or sham treated 24 month old and 4 month old (young reference) C57B/63 wildtype mice were used for measurement of mitochondrial respiratory activity.
# Wild type C57BL/6 mice were purchased from Janvier Labs, France (C57BL6/J:Rj males). Supplementation of spermidine was conducted late in life (starting at age of 18 months). After 6 months of treatment, isolation of cardiac mitochondria and high resolution respirometry was performed, using an isolation buffer containing 0.2% BSA and 5 mg/ml bacterial protease (Sigma-Aldrich, P8038). Hearts were quickly excised immediately after final blood collection under isoflurane anaesthesia and processed.
# Optical density at 600 nm (0D600) of the final mitochondrial suspension (isolation buffer including BSA, but excluding protease) was determined by serial dilutions in a TECAN GeniusPro plate reader and served as an estimate of mitochondrial mass used for normalization. Oxygen consumption was assayed at 37° C. with an Oxygraph 2 k high resolution respirometer (Oroboros Instruments, Austria) according to the manufacturer's recommendations. OD600 equivalents of isolated myocardial mitochondria corresponding to 10-20 ug mitochondrial protein were diluted in 2 ml equilibrated measurement medium (100 mM sucrose, 20 mM K+−TES (pH=7.2), 50 mM KCl, 2 mM MgCl2, 1 mM EDTA, 4 mM KH2PO4, 3 mM malate and 0.1% (v/v) BSA) within a closed and calibrated system with constant stirring. […]
# In FIG. 1A representative oxygraph recordings and (B) quantification of mitochondrial respiration (only OXPHOS stage shown) from isolated cardiac mitochondria incubated with complex I supplying substrates […] and pyruvate (Gly/Pyr) are shown. ROX, Residual respiration (State 1) in the absence of reduced substrate and ADP; LEAK, Respiration compensating for proton leak in the absence of ADP but presence of reduced substrate; OXPHOS, ADP stimulated respiration of coupled mitochondria (quantification shown in FIG. 1B); OXPHOS+CytC, Oxphos after addition of cytochrome C. […]
compound,measurement,setting,value
"NCCCCNCCCN [Spermidine, N-(3-Aminopropyl)-1,4-diaminobutane]",age-induced decline in mitochondrial respiratory function,"aged spermidine supplemented mice vs aged control and young reference mice, cardiac mitochondria",reversed
same,"activity of mitochondrial Complex I (respiratory competence of cardiac mitochondria through respiratory chain complex I, OXPHOS stage)",,increases the activity of mitochondrial Complex I
same,"activity of mitochondrial Complex I (respiratory competence of cardiac mitochondria through respiratory chain complex I, OXPHOS stage)",listed as spermidine,increased
